Tests used:
[1] = test system: TRK fusion positive cancers; settings: cited from earlier work
TRKA-A608D = biological target: T1, TRKA-A608D (Homo sapiens, UniProt P04629, A608D); assay: Reaction Biology HotSpot Kinase assay, direct enzyme phosphorylation; assay type: biochemical; settings: Other Mutant TRKA-A608D
T1 construct: purchased Reaction Biology (HotSpot Kinase assay panel)
Protocol: (§1) Direct enzyme phosphorylation assay. The Reaction Biology HotSpot Kinase assay was used to screen the present invention against a panel of normal TRKA, TRKB, and TRKC and mutated TRK kinases. For assays of all kinases, the TRK enzyme was prepared in base reaction buffer (20 mM Hepes (pH 7.5), 10 mM MgCl2, 1 mM EGTA, 0.02% Brij35, 0.02 mg/ml BSA, 0.1 mM Na3VO4, 2 mM DTT, 1% DMSO). The reaction was initiated by the addition of 33P-ATP (10 μCi/μL) into the mixture. The reaction mixture was incubated for 120 minutes at room temperature. Radioactivity was detected by filter-binding method, and kinase activity expressed as the percent remaining kinase activity in test samples compared to vehicle reactions. IC50 values and curve fitting were obtained using Prism (GraphPad Software).
(§2) The activity of the besylate salt of the present invention was determined using a direct enzymatic Reaction Biology HotSpot Kinase assay. All IC50 values are presented in nanomolar concentration. In the direct enzymatic measurement assay, the IC50 of the besylate salt of the current invention against the various TRK kinases is shown in Table 1.

TRKA-G667C = biological target: T2, TRKA-G667C (Homo sapiens, UniProt P04629, G667C); assay: as above; assay type: biochemical; settings: xDFG Mutant TRKA-G667C
T2 construct: purchased Reaction Biology (HotSpot Kinase assay panel)
Protocol: as §1, §2

TRKA-G667S = biological target: T3, TRKA-G667S (Homo sapiens, UniProt P04629, G667S); assay: as above; assay type: biochemical; settings: xDFG Mutant TRKA-G667S
T3 construct: purchased Reaction Biology (HotSpot Kinase assay panel)
Protocol: as §1, §2

TRKA-L657M = biological target: T4, TRKA-L657M (Homo sapiens, UniProt P04629, L657M); assay: as above; assay type: biochemical; settings: Other Mutant TRKA-L657M
T4 construct: purchased Reaction Biology (HotSpot Kinase assay panel)
Protocol: as §1, §2

TRKA-TFG = biological target: T5, TRKA-TFG (Homo sapiens, UniProt P04629); assay: as above; assay type: biochemical; settings: Fusion TRKA-TFG
T5 construct: partner gene encoding one or more dimerization domains with the tyrosine kinase domains of one of the TRK genes; TFG (fusion partner); purchased Reaction Biology (HotSpot Kinase assay panel); the other entry of the earlier key: TFG (Q92734, Protein TFG)
Protocol: as §1, §2

TRKA-TPM3 = biological target: T6, TRKA-TPM3 (Homo sapiens, UniProt P04629); assay: as above; assay type: biochemical; settings: Fusion TRKA-TPM3
T6 construct: fused on or other part: N-terminal part of tropomyosin 3 (coiled-coil dimerisation part); P06753 (Tropomyosin alpha-3 chain)
Protocol: as §1, §2

TRKA-TPR = biological target: T7, TRKA-TPR (Homo sapiens, UniProt P04629); assay: as above; assay type: biochemical; settings: Fusion TRKA-TPR
T7 construct: fused on or other part: N-terminal coiled-coil part of TPR (translocated promoter region protein); P12270 (Nucleoprotein TPR)
Protocol: as §1, §2

TRKC-G696A = biological target: T8, TRKC-G696A (Homo sapiens, UniProt Q16288, G696A); assay: as above; assay type: biochemical; settings: xDFG Mutant TRKC-G696A
T8 construct: purchased Reaction Biology (HotSpot Kinase assay panel)
Protocol: as §1, §2

TRKC-L686M = biological target: T9, TRKC-L686M (Homo sapiens, UniProt Q16288, L686M); assay: as above; assay type: biochemical; settings: Other Mutant TRKC-L686M
T9 construct: purchased Reaction Biology (HotSpot Kinase assay panel)
Protocol: as §1, §2

T8 sequence (Q16288 32-839 G696A): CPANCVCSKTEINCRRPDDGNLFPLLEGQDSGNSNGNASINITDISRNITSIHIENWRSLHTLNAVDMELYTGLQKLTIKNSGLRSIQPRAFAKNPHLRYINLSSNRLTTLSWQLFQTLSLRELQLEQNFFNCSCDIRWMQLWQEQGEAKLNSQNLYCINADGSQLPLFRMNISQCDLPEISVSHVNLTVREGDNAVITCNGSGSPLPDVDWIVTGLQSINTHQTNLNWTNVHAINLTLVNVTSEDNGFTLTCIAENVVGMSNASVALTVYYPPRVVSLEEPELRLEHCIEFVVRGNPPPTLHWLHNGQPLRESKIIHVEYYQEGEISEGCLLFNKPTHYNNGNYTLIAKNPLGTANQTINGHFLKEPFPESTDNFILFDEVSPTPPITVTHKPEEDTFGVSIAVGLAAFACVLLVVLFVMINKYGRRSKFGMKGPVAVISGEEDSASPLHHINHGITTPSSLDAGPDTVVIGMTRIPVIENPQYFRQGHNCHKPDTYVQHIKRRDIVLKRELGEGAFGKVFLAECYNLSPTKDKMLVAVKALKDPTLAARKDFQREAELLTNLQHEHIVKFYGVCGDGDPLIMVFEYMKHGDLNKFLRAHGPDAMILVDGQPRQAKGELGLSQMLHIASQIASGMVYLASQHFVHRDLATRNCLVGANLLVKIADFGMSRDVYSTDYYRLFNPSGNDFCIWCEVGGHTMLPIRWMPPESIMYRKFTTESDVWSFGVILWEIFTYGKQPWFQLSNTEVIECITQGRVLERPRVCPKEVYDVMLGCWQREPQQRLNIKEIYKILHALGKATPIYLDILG
T7 sequence (P04629 510-796 limits assumed): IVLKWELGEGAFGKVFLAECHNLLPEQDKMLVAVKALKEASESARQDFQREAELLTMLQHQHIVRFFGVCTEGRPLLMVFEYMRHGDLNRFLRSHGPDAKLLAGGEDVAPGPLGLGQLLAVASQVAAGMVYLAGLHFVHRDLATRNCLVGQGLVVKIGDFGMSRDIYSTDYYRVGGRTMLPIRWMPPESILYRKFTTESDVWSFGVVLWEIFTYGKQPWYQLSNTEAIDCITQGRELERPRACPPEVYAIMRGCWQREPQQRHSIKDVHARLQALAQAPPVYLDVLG
T6 sequence (P04629 510-796 limits assumed): as above
T5 sequence (P04629 with tags, fused parts or gaps): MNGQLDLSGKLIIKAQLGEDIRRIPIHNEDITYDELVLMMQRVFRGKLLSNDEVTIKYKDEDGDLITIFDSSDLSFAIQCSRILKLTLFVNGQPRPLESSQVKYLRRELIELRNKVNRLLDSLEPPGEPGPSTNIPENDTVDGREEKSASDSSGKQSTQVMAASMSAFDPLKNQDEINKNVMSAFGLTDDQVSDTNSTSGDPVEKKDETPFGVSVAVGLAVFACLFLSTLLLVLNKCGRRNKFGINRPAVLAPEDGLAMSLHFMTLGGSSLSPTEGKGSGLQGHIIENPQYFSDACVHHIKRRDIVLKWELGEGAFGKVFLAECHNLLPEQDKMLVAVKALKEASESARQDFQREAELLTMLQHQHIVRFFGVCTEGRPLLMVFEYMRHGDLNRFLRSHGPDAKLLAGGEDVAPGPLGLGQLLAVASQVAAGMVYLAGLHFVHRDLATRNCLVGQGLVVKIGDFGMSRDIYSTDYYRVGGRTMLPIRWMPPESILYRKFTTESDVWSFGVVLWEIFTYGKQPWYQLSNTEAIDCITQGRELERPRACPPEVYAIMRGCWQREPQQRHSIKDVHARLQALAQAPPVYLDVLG
T9 sequence (Q16288 32-839 L686M): as the sequence (Q16288 32-839 G696A) above, with L655M, A665G counted along it
T1 sequence (P04629 33-796 A608D): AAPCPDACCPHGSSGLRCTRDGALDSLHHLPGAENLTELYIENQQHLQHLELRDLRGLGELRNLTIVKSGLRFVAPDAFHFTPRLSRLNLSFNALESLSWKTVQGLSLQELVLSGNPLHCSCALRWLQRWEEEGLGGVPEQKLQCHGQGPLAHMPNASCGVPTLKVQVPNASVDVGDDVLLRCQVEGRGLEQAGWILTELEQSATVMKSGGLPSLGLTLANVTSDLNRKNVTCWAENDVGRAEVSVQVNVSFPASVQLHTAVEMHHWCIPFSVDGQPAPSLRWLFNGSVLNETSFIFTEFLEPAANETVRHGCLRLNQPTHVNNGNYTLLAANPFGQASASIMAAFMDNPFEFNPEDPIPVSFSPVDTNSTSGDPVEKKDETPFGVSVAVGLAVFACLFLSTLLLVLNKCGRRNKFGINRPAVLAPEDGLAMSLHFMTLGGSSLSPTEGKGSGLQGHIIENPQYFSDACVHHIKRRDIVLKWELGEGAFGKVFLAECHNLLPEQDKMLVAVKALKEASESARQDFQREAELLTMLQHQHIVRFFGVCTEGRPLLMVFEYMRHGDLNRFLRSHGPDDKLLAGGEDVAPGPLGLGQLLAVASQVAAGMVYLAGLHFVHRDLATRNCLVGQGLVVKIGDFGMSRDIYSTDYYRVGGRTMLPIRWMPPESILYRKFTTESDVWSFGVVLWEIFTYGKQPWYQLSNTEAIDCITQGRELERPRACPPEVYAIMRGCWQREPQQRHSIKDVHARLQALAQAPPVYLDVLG
T2 sequence (P04629 33-796 G667C): as the sequence (P04629 33-796 A608D) above, with D576A, G635C counted along it
T3 sequence (P04629 33-796 G667S): as the sequence (P04629 33-796 A608D) above, with D576A, G635S counted along it
T4 sequence (P04629 33-796 L657M): as the sequence (P04629 33-796 A608D) above, with D576A, L625M counted along it

IC50 (TRKA-A608D)	IC50 (TRKA-G667C)	IC50 (TRKA-G667S)	IC50 (TRKA-L657M)	IC50 (TRKA-TFG)	IC50 (TRKA-TPM3)	IC50 (TRKA-TPR)	IC50 (TRKC-G696A)	IC50 (TRKC-L686M)	SMILES	clinical response in assessed patients ([1]; assessed patients)	patients progressed within 1 year ([1]; within 1 year)
									O=C(Nc1cnn2ccc(N3CCC[C@@H]3c3cc(F)ccc3F)nc12)N1CC[C@H](O)C1 [Larotrectinib]	75%	45%
38.7 nM	5 nM	4.52 nM	79.7 nM	3.95 nM	4.34 nM	3.98 nM	5.69 nM	184 nM	CC1(COc2ccc3c(c2)ncn3-c2ccc3cccc(N4CCC(N)CC4)c3n2)COC1 [crenolanib besylate, Crenolanib Besylate]		
